Measurements from patent US9675712B2, “pH sensitive fluorescent polydiacetylene liposome and delivery vehicle comprising same” (priority 2012, dated 2017).

Test system: E. coli 0-157(ATCC 43894)
Experiment: Anti-bacterial analysis of drug release in vitro (plaque / growth inhibition area on agar plate)
Type: cell-based
Conditions: dish (c): standard solution in PBS; 20 μl, 37° C. overnight
Description: In order to prepare an LB broth and an agar medium, 12.5 g of the LB broth and 7.5 g of the plant agar were transferred to 1 L sterile flask. The components were dissolved in 500 mL of distilled water or deionized water, and flask was tightly covered with an aluminum foil, a plug or a cap similar thereto. The mixture was heated until a boiling point was reached to dissolve the agar, and sterilized by autoclave at 121-124° C. for 15 mins, and then waited until the autoclave was cooled and a pressure was 0. The medium was removed from the autoclave and cooled to room temperature. When the LB agar was cooled to a temperature (approximately 45° C.) which is still considered hot by touch, 0.5 cm or ¼ layer of agar was poured into the Petri dish. It corresponds to approximately 20 to 25 mL volumes of the agar. The Petri dish was positioned on a flat surface until the agar was completely solidified for 30 to 40 mins. The Petri dish containing the solid agar was stored at 4° C.
300 μl of bacteria (E. coli) was added to 3.0 mL of the LB broth, and the culture fluid was strongly shaken. Then, the culture fluid was cultured in an incubator shaking the bacteria at 37° C. overnight. […]
First, a growth inhibition area (plaque) will be shown in the fusible bacterial habitat in the case in which the drug is smoothly released from the liposome. […] Third, the analysis method needs to be quantitative.

CC1(C)S[C@@H]2[C@H](NC(=O)[C@H](N)c3ccccc3)C(=O)N2[C@H]1C(=O)O [ampicillin standard solution, ampicillin]
growth inhibition area: growth inhibition area was generally observed
